Measurements reported in patent US5635483A, “Tumor inhibiting tetrapeptide bearing modified phenethyl amides” (priority 1992, dated 1997).

What was measured:
Type in all cases: cell-based
P-388 = assay: Murine P388 lymphocytic leukemia cell growth inhibition; conditions: Mouse leukemia cell P-388
Excerpt: (§1) The extraordinary inhibition of cell growth shown by the tetrapeptide 6a-k against six major types of human cancer and against the murine P388 lymphocytic leukemia cell line has been presented in Table 1-2, below.

OVCAR-3 = assay: NCI human tumor cell line screen, ovarian OVCAR-3; conditions: for GI-50 / TGI: Human cancer cell; for LC-50: Human cancer cells
Excerpt: (§2) Current research in the control of cancer in the United States is coordinated by the National Cancer Institute (NCI). To determine whether a substance has anti-cancer properties, the NCI has established a systematic protocol. […] The protocol, and the established statistical means for analyzing the results obtained by the standardized testing are fully described in the literature. See: Body, Dr. Michael R., Principles & Practice of Oncology, PPO Updates, Volume 3, Number 10, October 1989, for an in depth description of the testing protocol; and Paull, K. D., "Display and Analysis of Patterns of Differential Activity of Drugs Against Human Tumor Cell Lines; Development of Mean Graph and COMPARE Algorithm", Journal of the National Cancer Institute Reports, Vol. 81, No. 14, Page 1088, Jul. 14, 1989 for a description of the methods of statistical analysis. Both of these references are incorporated herein by this reference thereto.

SF-295 = assay: NCI human tumor cell line screen, CNS SF-295; conditions: for GI-50 / TGI: Human cancer cell; for LC-50: Human cancer cells
Excerpt: (§3) Current research in the control of cancer in the United States is coordinated by the National Cancer Institute (NCI). To determine whether a substance has anti-cancer properties, the NCI has established a systematic protocol. This protocol, which involves the testing of a substance against a standard cell line panel containing 60 human tumor cell lines, has been verified and has been accepted in scientific circles. The protocol, and the established statistical means for analyzing the results obtained by the standardized testing are fully described in the literature. See: Body, Dr. Michael R., Principles & Practice of Oncology, PPO Updates, Volume 3, Number 10, October 1989, for an in depth description of the testing protocol; and Paull, K. D., "Display and Analysis of Patterns of Differential Activity of Drugs Against Human Tumor Cell Lines; Development of Mean Graph and COMPARE Algorithm", Journal of the National Cancer Institute Reports, Vol. 81, No. 14, Page 1088, Jul. 14, 1989 for a description of the methods of statistical analysis. Both of these references are incorporated herein by this reference thereto.
as §1

A498 = assay: NCI human tumor cell line screen, renal A498; conditions: for GI-50 / TGI: Human cancer cell; for LC-50: Human cancer cells
Excerpt: as §2

NCI-460 = assay: NCI human tumor cell line screen, Lung-NSC NCI-460; conditions: for GI-50 / TGI: Human cancer cell; for LC-50: Human cancer cells
Excerpt: as §2

KM20L2 = assay: NCI human tumor cell line screen, colon KM20L2; conditions: for GI-50 / TGI: Human cancer cell; for LC-50: Human cancer cells
Excerpt: as §2

SK-MEL-3 = assay: NCI human tumor cell line screen, melanoma SK-MEL-3; conditions: for GI-50 / TGI: Human cancer cell; for LC-50: Human cancer cells
Excerpt: as §3, §1

human cancer cell line = assay: Human cancer cell line activity compared with Dolastatin 10; conditions: R-dolaphenine (Doe) substitution
Excerpt: A series of Dolastatin 10 chiral isomers has been documented (See: Pettit et al., J. Med. Chem., 1990, 33, 3132). More recently these experiments were extended to synthesis of R-Doe-isodolastatin 10. […] The amide molecular length was then examined, starting with benzylamine, phenethylamine and 3-phenyl-1-propylamine. Also studied was a systematic series of modifications at the dolaphenine position introducing a substituted nitrogen instead of a phenyl ring.

| Substance | ED-50 (P-388) [µg/mL] | GI-50 (OVCAR-3) [µg/mL] | TGI (OVCAR-3) [ng/mL] | LC-50 (OVCAR-3) [µg/mL] | GI-50 (SF-295) [µg/mL] | TGI (SF-295) [ng/mL] | LC-50 (SF-295) [µg/mL] | GI-50 (A498) [µg/mL] | TGI (A498) [ng/mL] | LC-50 (A498) [µg/mL] | GI-50 (NCI-460) [µg/mL] | TGI (NCI-460) [ng/mL] | LC-50 (NCI-460) [µg/mL] | GI-50 (KM20L2) [µg/mL] | TGI (KM20L2) [ng/mL] | LC-50 (KM20L2) [µg/mL] | GI-50 (SK-MEL-3) [µg/mL] | TGI (SK-MEL-3) [ng/mL] | LC-50 (SK-MEL-3) [µg/mL] | human cancer cell line activity when compared with Dolastatin 10 (human cancer cell line) |
| --- | --- | --- | --- | --- | --- | --- | --- | --- | --- | --- | --- | --- | --- | --- | --- | --- | --- | --- | --- | --- |
| [2S-[1[1R*(R*),2S*],2R*[1S*,2S*, 3(1S*, 2R*)]]]-N,N-dimethyl-L-valyl-N-[2-methoxy-4-[2-[1-methoxy-2-methyl-3-oxo-3-[[1-phenyl-1-hydroxy-2-propyl]amino]propyl]-1-pyrrolidinyl-1-(methylpropyl)-4-oxobutyl]-N-methyl-L-valine amide [Peptide 6k] | 0.000434 | 0.00017 | 0.53 | > 0.01 | 0.0006 | > 10 | > 0.01 | 0.00075 | > 10 | > 0.01 | 0.0003 | 1 | > 0.01 | 0.00029 | 1.3 | > 0.01 | 0.00058 | > 10 | > 0.01 |  |
| R-Doe-isodolastatin 10 |  |  |  |  |  |  |  |  |  |  |  |  |  |  |  |  |  |  |  | does not result in any significant difference |
| [2S-[1[1R*(R*),2S*],2R*[1S*,2S*]]]-N,N-dimethyl-L-valyl-N-[2-methoxy-4-[2-[1-methoxy-2-methyl-3-oxo-3-[[2-(4-nitro-phenyl)-ethyl]amino]propyl]-1-pyrrolidinyl-1-(methylpropyl)-4-oxo butyl]-N-methyl-L-valineamide [Peptide 6b] | 0.0459 | 0.00024 | 0.65 | > 0.01 | 0.00035 | > 10 | > 0.01 | 0.00064 | > 10 | > 0.01 | 0.00028 | 1.2 | > 0.01 | 0.0003 | 1.3 | > 0.01 | 0.00012 | 1.3 | > 0.01 |  |
| [2S-[1[1R*(R*),2S*],2R*[1S*,2S*]]]-N,N-dimethyl-L-valyl-N-[2-methoxy-4-[2-[1-methoxy-2-methyl-3-oxo-3-[[2-(4-chlor-phenyl)-ethyl]amino]propyl]-1-pyrrolidinyl-1-(methylpropyl)-4-oxo butyl]-N-methyl-L-valineamide [Peptide 6c] | 0.00553 | < 0.000001 | < 0.001 | > 0.01 | 0.000010 | 1.9 | > 0.01 | 0.00062 | > 10 | > 0.01 | < 0.000001 | 1.1 | > 0.01 | < 0.000001 | 1.1 | > 0.01 | < 0.000001 | > 10 | > 0.01 |  |
